Source: US6476004B1, “Pharmaceutical composition” (Mitsubishi Pharma Corporation, priority 1996, dated 2002)

Assay: Behaviour of the aqueous solution of the present compound
Assay type: physicochemical
Procedure: When 2-amino-2-[2-(4-octylphenyl)ethyl]propane-1,3-diol or a pharmaceutical acceptable acid addition salt (particularly hydrochloride) is made an aqueous solution, the solution is observed foaming and shown hemolysis and local irritation at 0.01-20% by weight. When the present compound is made the aqueous solution at a higher concentration than 0.1% by weight, the present compound is dissolved by micellization. On the other hand, in the aqueous solution at a lower concentration than 0.05% by weight, the present compound is dissolved as a solution without micellization. […] The present invention characterizes that, by adding a cyclodextrin to the said aqueous solution, the problems such as foaming, hemolysis and local irritation, as well as prevention of crystalline deposits based on micellization, are settled at the same time.

CCCCCCCCc1ccc(CCC(N)(CO)CO)cc1.Cl [present compound, 2-amino-2-[2-(4-octylphenyl)ethyl]propane-1,3-diol hydrochloride]
concentration of aqueous solution at which crystalline deposits are found: 0.05-0.1 % by weight
concentration of aqueous solution at which foaming, hemolysis and local irritation are shown: 0.01-20 % by weight
concentration of aqueous solution at which the compound is dissolved by micellization: > 0.1 % by weight
concentration of aqueous solution at which the compound is dissolved without micellization: < 0.05 % by weight
